Results on 46 compounds are retold here after patent publication US7101878B1 (Agouron Pharmaceuticals, Inc., priority 1998, dated 2006).

This experiment has as its target T1, human GnRH receptor (Homo sapiens, UniProt P30968).
T1 construct: expressed in transfected cells; host or cells: HEK 293 (hGnRH-R/293, from Dr. Stuart Sealfon)
T1 sequence (P30968 1-328): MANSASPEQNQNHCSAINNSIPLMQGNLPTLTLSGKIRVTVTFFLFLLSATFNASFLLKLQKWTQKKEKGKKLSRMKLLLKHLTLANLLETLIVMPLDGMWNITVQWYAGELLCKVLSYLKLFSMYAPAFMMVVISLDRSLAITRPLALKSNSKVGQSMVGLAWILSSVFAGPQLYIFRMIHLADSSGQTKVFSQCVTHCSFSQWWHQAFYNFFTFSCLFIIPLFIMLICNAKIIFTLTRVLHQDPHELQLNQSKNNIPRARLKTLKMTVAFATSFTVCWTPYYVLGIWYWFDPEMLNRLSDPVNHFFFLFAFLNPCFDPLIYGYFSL
Nature of the experiment: Radioligand binding, 125I-GnRH-A displacement, membranes of HEK 293 cells with human GnRH receptor. The method in brief:
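Bound tracer was separated by filtration through polyethyleneimine-soaked GF/C filters and counted by liquid scintillation. IC50 from curve fitting; other species were tested under the same conditions.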

The mark [1] stands for this setting: 1 uM, read-out: % Inhib. @ 1 uM hGnRH.
The mark [2] stands for this setting: 1 h, repeat of % Inhib. at 1 uM, read-out: Repeats @ 1 uM hGnRH.

Structures are written as SMILES. Like-named read-outs stand apart in the source and are kept apart here.

For `COc1cc(CNC(=O)c2ccc(Cc3cc4c(cc3C)C(C)(C)CCC4(C)C)o2)cc(OC)c1OC` [drawing 995], the inhibition at 1 µM reads like this: under setting [1], 60%; under setting [2], 62%.
As for `COc1ccc(OC)c(CCNC(=O)c2ccc(Cc3cc4c(cc3C)C(C)(C)CCC4(C)C)o2)c1` [drawing 996], the inhibition at 1 µM under setting [1] worked out at 23% and the inhibition at 1 µM under setting [2] stood at 36%.
`Cc1cc2c(cc1Cc1ccc(C(=O)NCc3ccccc3C(F)(F)F)o1)C(C)(C)CCC2(C)C` [drawing 997]: the inhibition at 1 µM is, setting by setting: under setting [1], 11%; under setting [2], 6%.
Turning to `Cc1cc2c(cc1Cc1ccc(C(=O)NCCc3ccc(Cl)cc3Cl)o1)C(C)(C)CCC2(C)C` [drawing 998], the inhibition at 1 µM reads like this: under setting [1], 16%; under setting [2], 23%.
The corresponding values for `Cc1cc2c(cc1Cc1ccc(C(=O)NCCCN(C)c3ccccc3)o1)C(C)(C)CCC2(C)C` [drawing 1000] are 67% and 70%.
For the compound `Cc1cc2c(cc1Cc1ccc(C(=O)Nc3ccc4[nH]c(-c5ccccn5)nc4c3)o1)C(C)(C)CCC2(C)C` [drawing 1002], the inhibition at 1 µM under setting [1] amounted to 13% and the inhibition at 1 µM under setting [2] is 8%.
Take `Cc1cc2c(cc1Cc1ccc(C(=O)NCCCN(C)CCCN)o1)C(C)(C)CCC2(C)C` [drawing 1005]: the inhibition at 1 µM under setting [1] stood at 13% and the inhibition at 1 µM under setting [2] was 33%.
Turning to `Cc1cc2c(cc1Cc1ccc(C(=O)NCCc3c[nH]c4ccc(Cl)cc34)o1)C(C)(C)CCC2(C)C` [drawing 1007], the inhibition at 1 µM turned out to be 31% under setting [1] and 45% under setting [2].
With `Cc1cc2c(cc1Cc1ccc(C(=O)Nc3nc(N(C)C)nc4nc[nH]c34)o1)C(C)(C)CCC2(C)C` [drawing 1008], the inhibition at 1 µM is, setting by setting: under setting [1], -13%; under setting [2], -9%.
On to `Cc1cnc(CNC(=O)c2ccc(Cc3cc4c(cc3C)C(C)(C)CCC4(C)C)o2)cn1` [drawing 1009], for which the inhibition at 1 µM by setting is: (1 h, read-out: Repeats @ 1 uM hGnRH) 107%; (read-out: % Inhib. @ 1 uM hGnRH) 102%.
Turning to `Cc1cc2c(cc1Cc1ccc(C(=O)NCCc3c[nH]c4ccccc34)o1)C(C)(C)CCC2(C)C` [drawing 1012], the inhibition at 1 µM runs as follows: under setting [1], 78%; under setting [2], 81%.
Regarding `Cc1cc2c(cc1Cc1ccc(C(=O)NCc3ccc(-c4csnn4)cc3)o1)C(C)(C)CCC2(C)C` [drawing 1013], the inhibition at 1 µM was 87% under setting [1] and 92% under setting [2].
On the same counts, the results for `Cc1cc2c(cc1Cc1ccc(C(=O)NCc3ccc(C(=O)O)cc3)o1)C(C)(C)CCC2(C)C` [drawing 1016] are 44% and 45%.
Take `Cc1cc2c(cc1Cc1ccc(C(=O)NCCc3ccc(N)cc3)o1)C(C)(C)CCC2(C)C` [drawing 1017]: the inhibition at 1 µM runs as follows: under setting [1], 57%; under setting [2], 64%.
In the case of `Cc1cc2c(cc1Cc1ccc(C(=O)NCC(F)(F)F)o1)C(C)(C)CCC2(C)C` [drawing 1018], the inhibition at 1 µM is, setting by setting: under setting [1], 18%; under setting [2], 9%.
As to `Cc1cc2c(cc1Cc1ccc(C(=O)NCCc3cccc(C(F)(F)F)c3)o1)C(C)(C)CCC2(C)C` [drawing 1020], the inhibition at 1 µM by setting is: under setting [1], 33%; under setting [2], 89%.
On to `Cc1cc2c(cc1Cc1ccc(C(=O)NCC(=O)Nc3ccc([N+](=O)[O-])cc3)o1)C(C)(C)CCC2(C)C` [drawing 1022], for which the inhibition at 1 µM is, setting by setting: under setting [1], 83%; under setting [2], 86%.
Regarding `Cc1cc2c(cc1Cc1ccc(C(=O)NCCc3cccs3)o1)C(C)(C)CCC2(C)C` [drawing 1023], the inhibition at 1 µM under setting [1] worked out at 63% and the inhibition at 1 µM under setting [2] came to 64%.
For `Cc1cc2c(cc1Cc1ccc(C(=O)NCC3CCC(C(=O)O)CC3)o1)C(C)(C)CCC2(C)C` (centres unmarked) [drawing 1024], the inhibition at 1 µM stood at 66% under setting [1] and 76% under setting [2].
With `Cc1cc2c(cc1Cc1ccc(C(=O)NCCc3ccncc3)o1)C(C)(C)CCC2(C)C` [drawing 1025], the inhibition at 1 µM reads like this: under setting [1], 83%; under setting [2], 84%.
For `COc1cc(CNC(=O)c2ccc(Cc3cc4c(cc3C)C(C)(C)CCC4(C)C)o2)cc(OC)c1` [drawing 1026], the inhibition at 1 µM under setting [1] is 24% and the inhibition at 1 µM under setting [2] is 35%.
As for `CNCCCNC(=O)c1ccc(Cc2cc3c(cc2C)C(C)(C)CCC3(C)C)o1` [drawing 1027], the inhibition at 1 µM under setting [1] was -22% and the inhibition at 1 µM under setting [2] is -25%.
`Cc1cc2c(cc1Cc1ccc(C(=O)NCc3cccc(NC(=O)N(Cc4ccccc4)c4ccccc4)c3)o1)C(C)(C)CCC2(C)C` [drawing 1029]: the inhibition at 1 µM under setting [1] was -4% and the inhibition at 1 µM under setting [2] was 2%.
The corresponding values for `Cc1cc2c(cc1Cc1ccc(C(=O)NCc3ccc(F)c(F)c3)o1)C(C)(C)CCC2(C)C` [drawing 1030] are 55% and 60%.
The corresponding values for `Cc1cc2c(cc1Cc1ccc(C(=O)NCCc3c[nH]cn3)o1)C(C)(C)CCC2(C)C` [drawing 1031] are 22% and 28%.
With `Cc1cc2c(cc1Cc1ccc(C(=O)NCCc3cccnc3)o1)C(C)(C)CCC2(C)C` [drawing 1032], the inhibition at 1 µM is 80% under setting [1] and 90% under setting [2].
Take `Cc1cc2c(cc1Cc1ccc(C(=O)NCCCNCCCCNCCCN)o1)C(C)(C)CCC2(C)C` [drawing 1034]: the inhibition at 1 µM was -20% under setting [1] and -26% under setting [2].
As to `Cc1cc2c(cc1Cc1ccc(C(=O)NC3CCN(c4nccc(NCC5CCCO5)n4)C3)o1)C(C)(C)CCC2(C)C` (centres unmarked) [drawing 1036], the inhibition at 1 µM is, setting by setting: under setting [1], -12%; under setting [2], 0%.
As to `Cc1cc2c(cc1Cc1ccc(C(=O)NCC3CCN(c4nccc(NCC5CCCO5)n4)CC3)o1)C(C)(C)CCC2(C)C` (centres unmarked) [drawing 1037], the inhibition at 1 µM was 35% under setting [1] and 35% under setting [2].
For `Cc1cc2c(cc1Cc1ccc(C(=O)NCCc3cccc(Oc4ccccc4)c3)o1)C(C)(C)CCC2(C)C` [drawing 1039], the inhibition at 1 µM runs as follows: under setting [1], -2%; under setting [2], 4%.
On to `Cc1cc2c(cc1Cc1ccc(C(=O)NCCc3ccccc3Oc3ccccc3)o1)C(C)(C)CCC2(C)C` [drawing 1040], for which the inhibition at 1 µM reads like this: under setting [1], -11%; under setting [2], -8%.
On to `Cc1cc2c(cc1Cc1ccc(C(=O)NCCN3CCNC3=O)o1)C(C)(C)CCC2(C)C` [drawing 1041], for which the inhibition at 1 µM was found to be 32% under setting [1] and 44% under setting [2].
With `Cc1cc2c(cc1Cc1ccc(C(=O)NCCNCCNc3ccccc3)o1)C(C)(C)CCC2(C)C` [drawing 1043], the inhibition at 1 µM is, setting by setting: under setting [1], -1%; under setting [2], -9%.
In the case of `Cc1cc2c(cc1Cc1ccc(C(=O)NC3CCCC(Nc4ccnc(NCC5CCCO5)n4)C3)o1)C(C)(C)CCC2(C)C` (centres unmarked) [drawing 1045], the inhibition at 1 µM is, setting by setting: under setting [1], 17%; under setting [2], 25%.
On the same counts, the results for `Cc1cc2c(cc1Cc1ccc(C(=O)NCCCCNc3nccc(NCC4CCCO4)n3)o1)C(C)(C)CCC2(C)C` (centres unmarked) [drawing 1047] are 27% and 38%.
On the same counts, the results for `Cc1cc2c(cc1Cc1ccc(C(=O)NCC3CN(Cc4ccccc4)CCO3)o1)C(C)(C)CCC2(C)C` (centres unmarked) [drawing 1049] are 35% and 42%.
`Cc1cc2c(cc1Cc1ccc(C(=O)NCCCN3CCCCC3)o1)C(C)(C)CCC2(C)C` [drawing 1050]: the inhibition at 1 µM under setting [1] is -3% and the inhibition at 1 µM under setting [2] is 8%.
As to `Cc1cc2c(cc1Cc1ccc(C(=O)NCCc3c[nH]cn3)o1)C(C)(C)CCC2(C)C` [drawing 1051], the “% Inhib. @ 1 uM hGnRH” value (1 uM) worked out at 32%. For the same compound, for the setting “repeat of % Inhib. at 1 uM”, the “Repeats @ 1 uM hGnRH” value is reported as 36.
For the compound `Cc1cc2c(cc1Cc1ccc(C(=O)NCc3ccc(S(N)(=O)=O)cc3)o1)C(C)(C)CCC2(C)C` [drawing 1052], the inhibition at 1 µM runs as follows: under setting [1], 71%; under setting [2], 76%.
The corresponding values for `Cc1cc2c(cc1Cc1ccc(C(=O)NCc3nc4ccccc4[nH]3)o1)C(C)(C)CCC2(C)C` [drawing 1053] are 100% and 101%.
On the same counts, the results for `Cc1cc2c(cc1Cc1ccc(C(=O)NCCc3ccc4c(c3)OCO4)o1)C(C)(C)CCC2(C)C` [drawing 1055] are 51% and 56%.
For the compound `COc1ccc(C(=O)CNC(=O)c2ccc(Cc3cc4c(cc3C)C(C)(C)CCC4(C)C)o2)cc1` [drawing 1056], the inhibition at 1 µM amounted to 21% under setting [1] and 23% under setting [2].
Take `Cc1cc2c(cc1Cc1ccc(C(=O)NCCc3ccc([N+](=O)[O-])cc3)o1)C(C)(C)CCC2(C)C` [drawing 1057]: the inhibition at 1 µM by setting is: under setting [1], 30%; under setting [2], 44%.
Regarding `COC(=O)CCCCCNC(=O)c1ccc(Cc2cc3c(cc2C)C(C)(C)CCC3(C)C)o1` [drawing 1059], the inhibition at 1 µM by setting is: under setting [1], 85%; under setting [2], 85%.
Regarding `Cc1cc2c(cc1Cc1ccc(C(=O)NCc3nc4ccccc4[nH]3)o1)C(C)(C)CCC2(C)C` [drawing 1060], for the setting “1 uM”, the “% Inhib. @ 1 uM hGnRH” value was determined as 101%. In addition, the “Repeats @ 1 uM hGnRH” value (repeat of % Inhib. at 1 uM) was found to be 99.
With `COc1cc(CCNC(=O)c2ccc(Cc3cc4c(cc3C)C(C)(C)CCC4(C)C)o2)cc(OC)c1O` [drawing 1061], the inhibition at 1 µM runs as follows: under setting [1], 44%; under setting [2], 49%.
